Consider 4 compounds from PubChem BioAssay AID1963844 (Molecular Pharmacology Branch, DTP, NCI, 2024).

As usually defined, the IC50 is the concentration that gives 50% inhibition. As a reminder, the viability, T/C is the result in the treated group divided by that in the control group, in per cent.

Several values for one entry are separate records, joined by “and”; a condition that tells them apart may be missing. Equal values may be shown once.

The assay has as its system 422866-222-R5-J1-PDC complex spheroid viability. The assay is described as follows: Anticancer human tumor 422866-222-R5-J1-PDC patient-derived pancreatic adenocarcinoma cell line growth inhibition [POLQ]. The settings on record: for viability, T/C: stronger effect = lower value. Here is the method:
Multicellular complex tumor spheroid response to Polymerase (POL) inhibitors (novobiocin, ART-558, RP6685) in combination with a variety of drugs and investigational agents in selected tumor cell lines
The POL inhibitors (novobiocin, ART-558, and RP6685) were evaluated both individually and in combination with standard of care and investigational anticancer small molecules within a complex spheroid model of solid tumors. . Complex spheroids include a stromal component modeled by human endothelial cells (HUVEC) and fibroblasts modeled by human mesenchymal stem cells (MSCs). The concentration ranges selected for each drug and investigational agent were based upon clinically achievable concentrations if the clinical Cmax of the agent was known.
Compounds. The drugs and investigational agents: novobiocin (NSC847541), ART-558 (NSC835418), RP-6685 (NSC848927), peposertib (NSC802822), ceralasertib (NSC780249), elimusertib (NSC800525), camonsertib (NSC841442), AZD-1390 (NSC803789), olaparib (NSC753686), talazoparib (NSC767125), rucaparib (NSC756644), sotorasib (NSC818433), MRTX-1133 (NSC836407), SN-38 (NSC673596), topotecan (NSC609699), epotoside (NSC141540), doxorubicin (NSC123127), gemcitabine (NSC613327), 5-fluorouracil (NSC19893), paclitaxel (NSC125973), vemurafenib (NSC761431), MSA-2 (NSC828583), SN-011 (NSC837082), adavosertib (NSC754352), prexasertib (NSC758257), carboplatin (NSC241240) and oxaliplatin (NSC266046), were obtained from the National Cancer Institute (NCI) Developmental Therapeutics Program Chemical Repository (21). The FDA-approved anticancer drug set is available from the Developmental Therapeutics Program at https://dtp.cancer.gov/organization/dscb/obtaining/. […] The stock solutions were prepared in dimethyl sulfoxide (DMSO, Sigma-Aldrich, St. Louis, MO, cat. D2650), except for the platinum compounds which were prepared in saline (Quality Biological, Gaithersburg, MD, cat. 114-055-101), at 800-fold the tested concentration and stored at -70 degrees C prior to their use. All drugs and investigational agents were tested over a range starting from a high concentration at or near the clinical Cmax and decreasing in half-log increments. If the clinical Cmax for an agent had not been determined, the highest concentration tested was 10 microM, except for SN-38, which was tested at a high concentration of 1 microM.
Cell Culture. All cells were maintained in an incubator at 37 degrees C and 5% CO2 with 95% humidity. The PDC lines were cultured according to standard operating procedures established by the NCI PDMR (https://pdmr.cancer.gov). Table 3 of the manuscript, lists the cell lines along with the number of the three cell types plated to form the mct-spheroids and media for tumor cell growth. After thawing, all PDC lines, except 997537-175-T-J1-PDC and 415267-285-R-J2-PDC, were cultured in Matrigel-coated flasks prepared with a working solution of 1X Ham's F-12 nutrient mix, without supplementation (Thermo Fisher Scientific, cat. 11765054), 100 U/mL penicillin-streptomycin (Thermo Fisher Scientific, cat. 15140122), and 2.5% Matrigel (Corning Inc., Corning, NY, cat. 354248) for the first three passages. The two PDC lines 997537-175-T-J1-PDC and 415267-285-R-J2-PDC were cultured on uncoated flasks. The 857933-349-R-J2-PDC line was cultured in 6C/Colon 1B media containing advanced DMEM/F-12 (Thermo Fisher Scientific, cat. 12634028), 10 mM HEPES (Thermo Fisher Scientific, cat. 15630080), 1X GlutaMAX supplement (Thermo Fisher Scientific, cat. 35050061), 0.1 mg/mL primocin (InvivoGen, San Diego, CA, cat. ant-pm-2), 10% defined fetal bovine serum, heat inactivated (HyClone Laboratories Inc., Logan, UT, cat. SH30070.03HI), 50% L-WRN conditioned media (ATCC, cat. CRL-3276), 1.25 mM N-Acetyl-L-cysteine (Sigma-Aldrich, cat. A9165), 10 mM nicotinamide (Sigma-Aldrich, cat. N0636), 1X B-27 supplement (Thermo Fisher Scientific, cat. 17504044), 1X N-2 supplement (Thermo Fisher Scientific, cat. […]

[1] abbreviates: curve of first compound, second compound 0.0316 µM.
The mark [2] stands for this setting: curve of first compound, second compound 0.1 µM.
The mark [3] stands for this setting: curve of first compound, second compound 0.316 µM.
The mark [4] stands for this setting: curve of first compound, second compound 1 µM.
The mark [5] stands for this setting: curve of first compound, second compound 3.16 µM.
Where [6] appears, read: curve of first compound, second compound 10 µM.
Setting [7] is: second compound 0.0316 µM, first compound 0.0316 µM.
The mark [8] stands for this setting: second compound 0.0316 µM, first compound 0.1 µM.
The mark [9] stands for this setting: second compound 0.1 µM, first compound 0.0316 µM.
Setting [10] is: second compound 0.1 µM, first compound 0.1 µM.
[11] abbreviates: second compound 0.316 µM, first compound 0.0316 µM.
Where [12] appears, read: second compound 0.316 µM, first compound 0.1 µM.
Setting [13] is: second compound 1 µM, first compound 0.0316 µM.
Where [14] appears, read: second compound 1 µM, first compound 0.1 µM.
Setting [15] is: second compound 3.16 µM, first compound 0.0316 µM.
[16] abbreviates: second compound 3.16 µM, first compound 0.1 µM.
Setting [17] is: second compound 10 µM, first compound 0.0316 µM.
[18] abbreviates: second compound 10 µM, first compound 0.1 µM.
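Note: spheroids exposed to compounds for one week before readout.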
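Throughout, for viability, T/C: percent of DMSO vehicle wells luminescence so 100% = untreated viability.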

For the compound `CC[C@@]1(O)C(=O)OCc2c1cc1n(c2=O)Cc2cc3c(CN(C)C)c(O)ccc3nc2-1` + Nc1ccc(C#CCN(C(=O)Cc2ncc(C(F)(F)F)cc2C(F)(F)F)c2ccc(F)cc2)nn1, the IC50 came to 26.3 nM under setting [1]; 18.4 nM under setting [2]; 19.5 nM under setting [3]; 10.7 nM under setting [4]; 19.7 nM under setting [5]; 26.6 nM under setting [6]. For the same compound, the viability, T/C is 102% (second compound 0.0316 µM, first compound 0.000316 µM); 109% (second compound 0.0316 µM, first compound 0.001 µM); 93.3% (second compound 0.0316 µM, first compound 0.00316 µM); 76% (second compound 0.0316 µM, first compound 0.01 µM); 44% under setting [7]; 34.6% under setting [8]. The viability, T/C is, setting by setting: (second compound 0.1 µM, first compound 0.000316 µM) 99.1%; (second compound 0.1 µM, first compound 0.001 µM) 87.2%; (second compound 0.1 µM, first compound 0.00316 µM) 89.6%; (second compound 0.1 µM, first compound 0.01 µM) 63.9%; under setting [9], 37.4%; under setting [10], 33.6%. Moreover, the viability, T/C (second compound 0.316 µM, first compound 0.000316 µM) was determined as 85.6%; the viability, T/C (second compound 0.316 µM, first compound 0.001 µM) was found to be 105%; the viability, T/C (second compound 0.316 µM, first compound 0.00316 µM) amounted to 87%; the viability, T/C (second compound 0.316 µM, first compound 0.01 µM) was 63.8%; the viability, T/C under setting [11] is 40.8%; the viability, T/C under setting [12] was 34.8%. Also, the viability, T/C stood at 105% (second compound 1 µM, first compound 0.000316 µM); 108% (second compound 1 µM, first compound 0.001 µM); 80.5% (second compound 1 µM, first compound 0.00316 µM); 53.6% (second compound 1 µM, first compound 0.01 µM); 33.3% under setting [13]; 35.7% under setting [14]. Further, the viability, T/C runs as follows: (second compound 3.16 µM, first compound 0.000316 µM) 89.2%; (second compound 3.16 µM, first compound 0.001 µM) 100%; (second compound 3.16 µM, first compound 0.00316 µM) 92.9%; (second compound 3.16 µM, first compound 0.01 µM) 68.1%; under setting [15], 36.9%; under setting [16], 37%. The viability, T/C by setting is: (second compound 10 µM, first compound 0.000316 µM) 114%; (second compound 10 µM, first compound 0.001 µM) 99.4%; (second compound 10 µM, first compound 0.00316 µM) 100%; (second compound 10 µM, first compound 0.01 µM) 75.8%; under setting [17], 44.5%; under setting [18], 31.5%.
On to `COc1cc(C2c3cc4c(cc3C(OC3OC5COC(C)OC5C(O)C3O)C3COC(=O)C23)OCO4)cc(OC)c1O` (centres undefined) + COC1C(OC(N)=O)C(O)C(Oc2ccc3c(O)c(NC(=O)c4ccc(O)c(CC=C(C)C)c4)c(=O)oc3c2C)OC1(C)C, for which the IC50 by setting is: under setting [1], 1330 nM; under setting [2], 966 nM; under setting [3], 770 nM; under setting [4], 1070 nM; under setting [5], 854 nM; under setting [6], 715 nM. Moreover, the viability, T/C under setting [7] was determined as 97.7%; the viability, T/C under setting [8] is 95%; the viability, T/C (second compound 0.0316 µM, first compound 0.316 µM) stood at 72.5%; the viability, T/C (second compound 0.0316 µM, first compound 1 µM) came out at 51.3%; the viability, T/C (second compound 0.0316 µM, first compound 3.16 µM) came out at 45.4%; the viability, T/C (second compound 0.0316 µM, first compound 10 µM) came out at 31.5%. The viability, T/C by setting is: under setting [9], 103%; under setting [10], 94.7%; (second compound 0.1 µM, first compound 0.316 µM) 73.5%; (second compound 0.1 µM, first compound 1 µM) 49.3%; (second compound 0.1 µM, first compound 3.16 µM) 38.2%; (second compound 0.1 µM, first compound 10 µM) 36.4%. Moreover, the viability, T/C amounted to 101% under setting [11]; 98.6% under setting [12]; 61.8% (second compound 0.316 µM, first compound 0.316 µM); 51.4% (second compound 0.316 µM, first compound 1 µM); 35.7% (second compound 0.316 µM, first compound 3.16 µM); 34.9% (second compound 0.316 µM, first compound 10 µM). Also, the viability, T/C is, setting by setting: under setting [13], 109%; under setting [14], 93.2%; (second compound 1 µM, first compound 0.316 µM) 85.5%; (second compound 1 µM, first compound 1 µM) 48.3%; (second compound 1 µM, first compound 3.16 µM) 38%; (second compound 1 µM, first compound 10 µM) 32.7%. Besides, the viability, T/C was 87.2% under setting [15]; 88.3% under setting [16]; 82.4% (second compound 3.16 µM, first compound 0.316 µM); 44.8% (second compound 3.16 µM, first compound 1 µM); 39.4% (second compound 3.16 µM, first compound 3.16 µM); 35.5% (second compound 3.16 µM, first compound 10 µM). Moreover, the viability, T/C by setting is: under setting [17], 96.1%; under setting [18], 101%; (second compound 10 µM, first compound 0.316 µM) 64.4%; (second compound 10 µM, first compound 1 µM) 51%; (second compound 10 µM, first compound 3.16 µM) 41.3%; (second compound 10 µM, first compound 10 µM) 36.7%.
As to `COc1cccc2c1C(=O)c1c(O)c3c(c(O)c1C2=O)CC(O)(C(=O)CO)CC3OC1CC(N)C(O)C(C)O1` (centres undefined), the viability, T/C reads like this: (compound 0.0316 µM) 70.1% and 56.7% and 69%; (compound 0.316 µM) 36.8% and 26.5% and 35.3%; (compound 1 µM) 34.3% and 23.3% and 26.8%; (compound 3.16 µM) 30.2% and 28.3% and 28.6%; (compound 10 µM) 33.7% and 25.8% and 38.8%. The IC50 (curve of compound) was 106 nM and 68.8 nM and 221 nM.
`O=C(c1cc(Cc2n[nH]c(=O)c3ccccc23)ccc1F)N1CCN(C(=O)C2CC2)CC1`: the viability, T/C is 98.1% and 101% and 83.2% (compound 0.0316 µM); 97.3% and 102% and 84.5% (compound 0.1 µM); 99.5% and 102% and 91.3% (compound 1 µM). For the same compound, the IC50 (curve of compound) was over 10000 nM.
